Structures can show the parent of a compound that is named as a salt. Where two headings read alike, the source gives them in different places.
Tests used:
[1] = 37° C.
Method: (§1) The term “FaSSIF media” refers to Fasted State Simulated Intestinal Fluid media prepared using FaSSIF powder and buffer concentrate obtained from the commercial source Biorelevant (London, UK, biorelevant.com). The FaSSIF powder contains sodium taurocholate, lecithin, sodium chloride, monobasic sodium phosphate and sodium hydroxide. The FaSSIF media is prepared as described at https://biorelevant.com/learning_center/what-is-fassif/. Briefly the pH6.5 buffer containing 0.42 g of NaOH, 3.95 g of NaH2PO4·H2O and 6.19 g of NaCl was dissolved in 0.9 L of purified water and the pH of the solution was adjusted to 6.5 using sodium hydroxide 1N or hydrochloric acid 1N and made up to volume (1 L) with purified water at room temperature. Dissolve 2.24 g of the FaSSIF powder in 0.5 L of the pH6.5 buffer, stirring until the powder is completely dissolved, and then make up to volume (1 L) with buffer at room temperature.
(§2) The samples were stirred using a magnetic stirrer at 37° C. […] The samples were filtered via centrifugation (12,000 rpm, 5 min). The supernatant was diluted (2×) with HPLC grade solvent and analyzed by HPLC.
HPLC gradient was as follows:
(§3) The pH 1.2, pH 4.5, and pH 6.8 media were prepared as standard aqueous buffered solutions following USP <39>.
(§4) As used herein, the term “FaSSIF media” means Fasted Stated Simulated Intestinal Fluid media prepared according to the method known in the art.

[2] = Stability of the ethanolamine salt under accelerated and long-term storage conditions; assay type: physicochemical; details: for API (Purity_) / Total Impurity: HPLC
Method: The samples were assayed by HPLC at the start, after 1 week, and after 2 weeks at the indicated accelerated storage conditions, or after 36 days at room temperature storage. For HPLC analysis, the samples were diluted with 10 mL of TFA/DMSO/ACN (0.1/10/90, v/v/v) to ˜1 mg/mL and analyzed by HPLC.
The samples were also analyzed by XRPD at initial, 1 week, 2 weeks and 36 day time points.

[3] = Dynamic Vapor Sorption (DVS) hygroscopicity; details: at 80% RH, 25° C., measured during 0% RH to 95% RH increase
Text: The change in water content is recited as a % change in mass of the starting sample and all such water sorption (DVS) values recited herein will be understood to explicitly include numerical values within a +/−0.2% variance.
The humidity is held constant at 30% RH until the mass change of the sample reaches equilibrium, as determined by the rate of change of weight being 0.01%/minute or less. The humidity is then changed to the next step value and the consequent mass change measured, and so on.
The hygroscopicity values recited herein refer to total water gain since the start of the experiment only and so may not necessarily be equivalent to the actual total water content of the sample.

physchem = details: 37 °C, thermodynamic from solid; for solubility at 1 h: 1 h Solubility; for solubility at 24 h: 24 h Solubility
Method: as §1, §2
HPLC gradient was as follows:
as §3, §4

in vivo = details: rat, in vivo, po, 20 mg/kg
Method: Bioavailability is determined by the equation AUC=F·D/CLT, wherein AUC is the area under the plot of plasma concentration, F is the absolute bioavailability, D is the dose, and CLT is the total clearance.
The rats received a single oral dose of 20 mg/kg body weight (b.w.). The doses were prepared as a 2.0 mg/mL suspension in a vehicle of 20 mM Na2HPO4 buffer containing 5% (v/v) DMSO, 0.4% (v/v) 1M NaOH and 0.4% (v/v) Tween 80 and a dose volume of 10 mL/kg b.w.
Pharmacokinetic analysis was performed on the average plasma concentration for each time point.

[4] = Thermogravimetric Analysis (TGA) weight loss; assay type: physicochemical; details: for Weight loss (TGA): when heated from about 25° C. to about 120° C. (text)
[5] = 40° C., 75% RH, open vial, 1 week
[6] = 40° C., 75% RH, open vial, 2 weeks
[7] = pH 1.2 aqueous buffer, pH 1.2, simulated gastric fluid, pH 1.2 medium
[8] = pH 4.5 aqueous buffer, pH 4.5 medium

In the case of `C#CCOc1ccc(/C=C/C(=O)Nc2ccccc2C(=O)O)cc1OC` [Ethanolamine salt], the “1 h Solubility” value ([1]; FaSSIF (pH 7.5)) is reported as greater than 7.99 mg/mL, the “24 h Solubility” value ([1]; FaSSIF (pH 7.5)) is reported as greater than 7.99 mg/mL and the “1 h Solubility” value ([1]; FaSSIF) is reported as 0.238 mg/mL. The “24 h Solubility” value ([1]; FaSSIF) was 0.263 mg/mL, the “1 h Solubility” value ([1]; FeSSIF (pH 7.8)) was greater than 8.02 mg/mL and the “24 h Solubility” value ([1]; FeSSIF (pH 7.8)) was greater than 8.02 mg/mL. The “1 h Solubility” value ([1]; FeSSIF) was 0.012 mg/mL, the “24 h Solubility” value ([1]; FeSSIF) was 0.025 mg/mL and the “1 h Solubility” value ([1]; pH 6.8 medium) was 0.116 mg/mL. The Appearance [2, 5] was “White”, the “API (Purity_)” value [2, 5] was 99.73% and the “Total Impurity” value [2, 5] was 0.27%. For the same compound, the Appearance [2, 6] was “White”, the “API (Purity_)” value [2, 6] was 99.72% and the “Total Impurity” value [2, 6] was 0.28%. The Appearance ([2]; 60° C., open vial, 1 week) was “White”, the “API (Purity_)” value ([2]; 60° C., open vial, 1 week) was 99.73% and the “Total Impurity” value ([2]; 60° C., open vial, 1 week) was 0.27%. The Appearance ([2]; 60° C., open vial, 2 weeks) was “White”, the “API (Purity_)” value ([2]; 60° C., open vial, 2 weeks) was 99.71% and the “Total Impurity” value ([2]; 60° C., open vial, 2 weeks) was 0.29%. The Appearance ([2]; Initial) was “White”, the “API (Purity_)” value ([2]; Initial) was 99.75% and the “Total Impurity” value ([2]; Initial) was 0.26%. For the same compound, the “Changes in impurity content or crystallinity” value ([2]; accelerated storage (1-2 weeks) or long-term storage (room temperature, 36 days), HPLC and XRPD) was “no significant changes”, the “Hygroscopicity by DVS” value [3] was 0.49% and the “Hygroscopicity by DVS” value ([3]; listed as ethanolamine) was 0.49%. For the same compound, the “Hygroscopicity by DVS” value ([3]; listed as ethanolamine salt) was “about 0.49%”, the solubility at 1 h (physchem; [7]) was 8 µg/mL and the solubility at 24 h (physchem; [7]) was 3 µg/mL. For the same compound, the solubility at 1 h (physchem; [8]) was 28 µg/mL, the solubility at 24 h (physchem; [8]) was 5 µg/mL and the solubility at 24 h (physchem; pH 6.8 aqueous buffer, pH 6.8 medium) was 88 µg/mL. For the same compound, the AUCExtr (in vivo; Sprague-Dawley) was 1.92%, the AUCInf (in vivo; Sprague-Dawley) was 405.006 µg·h/mL and the AUClast (in vivo; Sprague-Dawley) was 396.535 µg·h/mL. The tmax (in vivo; Sprague-Dawley) was 1.00 h, the “Mean concentration (plasma)” value (in vivo; Sprague-Dawley, 0.5 h) was 37133 ng/mL and the “Mean concentration (plasma)” value (in vivo; Sprague-Dawley, 1 h) was 52733 ng/mL. For the same compound, the “Mean concentration (plasma)” value (in vivo; Sprague-Dawley, 2 h) was 40300 ng/mL, the “Mean concentration (plasma)” value (in vivo; Sprague-Dawley, 4 h) was 25900 ng/mL and the “Mean concentration (plasma)” value (in vivo; Sprague-Dawley, 8 h) was 18767 ng/mL. The “Mean concentration (plasma)” value (in vivo; Sprague-Dawley, 24 h) was 1262 ng/mL, the half-life (in vivo; Sprague-Dawley, t1/2) was 259 min and the “Plasma concentration at 24 h post dose compared to the other tested compounds” value (in vivo) was “highest plasma concentrations”. For the same compound, the “Weight loss by TGA” value ([4]; from 0° C. to 120° C.) was 0.10% from 0 °C to, the “Weight loss by TGA” value ([4]; from r.t. to 120° C.) was 0.10% from r.t. to and the “Total weight loss by TGA” value ([4]; from r.t. to 350° C. (or to decomposition if lower)) was 0.10% total weight. The “Weight loss (TGA)” value ([4]; listed as ethanolamine) was 0.10% and the “Weight loss (TGA)” value ([4]; listed as ethanolamine salt) was “about 0.1%”.

Reference: patent US11905231B1, “Solid forms, salts and polymorphs of anti-fibrotic compounds” (Certa Therapeutics Pty Ltd, priority 2023, dated 2024)
